In patent publication US9302999B2, “Substituted triazoles as herbicides” (E. I. DU PONT DE NEMOURS AND COMPANY, priority 2012, dated 2016):

What was measured:
Format in all cases: in vivo
[1] = tested on: smartweed (ladysthumb smartweed, Polygonum persicaria); test: Test F pre-/postemergence: smartweed
From the text: Seeds of plant species selected from corn (Zea mays), soybean (Glycine max), velvetleaf (Abutilon theophrasti), lambsquarters (Chenopodium album), poinsettia, wild (wild poinsettia, Euphorbia heterophylla), pigweed, palmer (palmer pigweed, Amaranthus palmeri), waterhemp (common waterhemp, Amaranthus rudis), surinam grass (Brachiaria decumbens), crabgrass, Brazil (Brazilian crabgrass, Digitaria horizontalis), panicum, fall (fall panicum Panicum dichotomiflorum), crabgrass, large (large crabgrass, Digitaria sanguinalis), foxtail, giant (giant foxtail, Setaria faberii), foxtail, green (green foxtail Setaria viridis), goosegrass (Eleusine indica), ragweed (common ragweed, Ambrosia elatior), barnyardgrass (Echinochloa crus-galli), sandbur (southern sandbur, Cenchrus echinatus), arrowleaf sida (Sida rhombifolia), ryegrass, Italian (Italian ryegrass, Lolium multiflorum), dayflower, VA (Virginia (VA) dayflower, Commelina virginica), field bindweed (Convolvulus arvensis), cocklebur (common cocklebur, Xanthium strumarium), morningglory (Ipomoea coccinea), nightshade (eastern black nightshade, Solanum ptycanthum), kochia (Kochia scoparia), nutsedge, yellow (yellow nutsedge, Cyperus esculentus), johnsongrass (Sorghum halepense), smartweed (ladysthumb smartweed, Polygonum persicaria), and beggarticks (hairy beggarticks, Bidens pilosa), were planted into a silt loam soil and treated preemergence with test chemicals formulated in a non-phytotoxic solvent mixture which included a surfactant. At the same time, plants selected from these crop and weed species and also pigweed (Amaranthus retroflexus), waterhemp_RES1 (ALS/Triazine resistant common waterhemp, Amaranthus rudis) and waterhemp_RES2 (ALS/HPPD resistant common waterhemp, Amaranthus rudis) were planted in pots containing a planting medium comprising spaghnum peat moss, vermiculite, wetting agent and starter nutrients treated with postemergence applications of some of the test chemicals formulated in the same manner. Plants ranged in height from 2 to 18 cm for postemergence treatments (1- to 4-leaf stage).
(§1) Treated plants and controls were maintained in a greenhouse for 14 to 21 days, after which time all species were compared to controls and visually evaluated. Plant response ratings, summarized in Table E, are based on a scale of 0 to 100 where 0 is no effect and 100 is complete control. A dash (-) response means no test result.

[2] = tested on: beggarticks (hairy beggarticks, Bidens pilosa); test: Test E pre-/postemergence: beggarticks; details: Postemergence, scale 0 to 100
From the text: (§2) Seeds of plant species selected from corn (Zea mays), soybean (Glycine max), velvetleaf (Abutilon theophrasti), lambsquarters (Chenopodium album), poinsettia, wild (wild poinsettia, Euphorbia heterophylla), pigweed, palmer (palmer pigweed, Amaranthus palmeri), waterhemp (common waterhemp, Amaranthus rudis), smartweed (ladysthumb smartweed, Polygonum persicaria), surinam grass (Brachiaria decumbens), crabgrass, large (large crabgrass, Digitaria sanguinalis), crabgrass, Brazil (Brazilian crabgrass, Digitaria horizontalis), panicum, fall (fall panicum, Panicum dichotomiflorum), foxtail, giant (giant foxtail, Setaria faberii), foxtail, green (green foxtail, Setaria viridis), goosegrass (Eleusine indica), johnsongrass (Sorghum halepense), ragweed (common ragweed, Ambrosia elation), barnyardgrass (Echinochloa crus-galli), sandbur (southern sandbur, Cenchrus echinatus), arrowleaf sida (Sida rhombifolia), ryegrass, Italian (Italian ryegrass, Lolium multiflorum), dayflower, (VA) (Virginia dayflower, Commelina virginica), field bindweed (Convolvulus arvensis), cocklebur (common cocklebur, Xanthium strumarium), morningglory (Ipomoea coccinea), nightshade (eastern black nightshade, Solanum ptycanthum), kochia (Kochia scoparia), nutsedge, yellow (yellow nutsedge, Cyperus esculentus) and beggarticks (hairy beggarticks, Bidens pilosa) were planted into a silt loam soil and treated preemergence with test chemicals formulated in a non-phytotoxic solvent mixture which included a surfactant. At the same time, plants selected from these crop and weed species were planted in pots containing a growing medium comprising spaghnum peat moss, vermiculite, wetting agent and starter nutrients and treated with postemergence applications of some of the test chemicals formulated in the same manner. Plants ranged in height from 2 to 18 cm for postemergence treatments (1- to 4-leaf stage).
as §1

[3] = tested on: smartweed (ladysthumb smartweed, Polygonum persicaria); test: Test E pre-/postemergence: smartweed; details: Postemergence, scale 0 to 100
From the text: as §2, §1

[4] = tested on: pigweed (AMARE, Amaranthus retroflexus); test: Test H post-emergence, alone and in combination: pigweed
From the text: (§3) Seeds of plant species selected from wheat (TRZAW, Triticum aestivum), barley (HORBW, Hordeum vulgare), Kochia (KCHSC, Kochia caoparia) blackgrass (ALOMY, Alopecurus myosuroides), canarygrass (PHAMI, Phalaris minor), Italian ryegrass (LOLMU, Lolium multiflorum) common lambsquarter (CHEAL, Chenopodium album), pigweed (AMARE, Amaranthus retroflexus), Common Chickweed (STEME, Stellaria media), Russian thistle (SASKR, Salsola iberica), Wild Buckwheat (POLCO, Polygonum convolvulus), Catchweed Bedstraw (GALAP, Galium aparine), Mustard (SINAR, Sinapisar arvensis), Henbit Deadnettle (LAMAM, Lamium amplexicaule), Wild Radish (RAPRA, Raphanus raphanistrum), Field Poppy (PAPRH, Papaver rhoeas), Field Violet (VIOAR, Viola arvennsis), Scentless Chamomile (MATIN Matricaria inodora) were planted into soil and treated post-emergence with test chemicals formulated in a non-phytotoxic solvent mixture. Plants were grown in a greenhouse using supplemental lighting to maintain a photoperiod of approximately 14 hours; daytime and nighttime temperatures were approximately 23°-29° and 16°-19° Celsius, respectively. Balanced fertilizer was applied through the watering system. Treated plants and controls were maintained in a greenhouse for 20 days, after which time all species were compared to controls and visually evaluated. Plant response ratings were calculated as the mean of three replicates (unless otherwise indicated), are summarized in Table G, and are based on a scale of 0 to 100 where 0 is no effect and 100 is complete control. A dash (-) response means no test result.

[5] = tested on: wheat (TRZAW, Triticum aestivum); test: Test H post-emergence, alone and in combination: wheat
From the text: as §3

[6] = tested on: Italian ryegrass (LOLMU, Lolium multiflorum); test: Test H post-emergence, alone and in combination: Italian ryegrass
From the text: as §3

[7] = tested on: Wild Buckwheat (POLCO, Polygonum convolvulus); test: Test H post-emergence, alone and in combination: Wild Buckwheat
From the text: as §3

[8] = tested on: common lambsquarter (CHEAL, Chenopodium album); test: Test H post-emergence, alone and in combination: common lambsquarter
From the text: as §3

For `Cc1nn(-c2ccc(C(F)(F)F)c(F)c2)nc1Cc1ccnc(C(F)(F)F)c1` [Compound 162], the “Plant response rating, Smartweed” value ([1]; Postemergence, 4 g ai/ha, scale 0 to 100) was 10, the “Plant response rating, Smartweed” value ([1]; Postemergence, 8 g ai/ha, scale 0 to 100) was 10 and the “Plant response rating, Smartweed” value ([1]; Postemergence, 16 g ai/ha, scale 0 to 100) was 10. For the same molecule, the “Plant response rating, Smartweed” value ([1]; Postemergence, 31 g ai/ha, scale 0 to 100) was 15, the “Plant response rating, Smartweed” value ([1]; Postemergence, 62 g ai/ha, scale 0 to 100) was 15 and the “Plant response rating, Smartweed” value ([1]; Preemergence, 4 g ai/ha, scale 0 to 100, 0 no effect, 100 complete control) was 0. For the same molecule, the “Plant response rating, Smartweed” value ([1]; Preemergence, 8 g ai/ha, scale 0 to 100, 0 no effect, 100 complete control) was 0, the “Plant response rating, Smartweed” value ([1]; Preemergence, 16 g ai/ha, scale 0 to 100 (0 no effect, 100 complete control)) was 0 and the “Plant response rating, Smartweed” value ([1]; Preemergence, 31 g ai/ha, scale 0 to 100 (0 no effect, 100 complete control)) was 0.
`Cc1nn(-c2ccc(C(F)(F)F)cc2)nc1Cc1ccnc(C(F)(F)F)c1` [Compound 47, 4-[[5-methyl-2-[4-(trifluoromethyl)phenyl]-2H-1,2,3-triazol-4-yl]methyl]-2-(trifluoromethyl)pyridine] was tested, and the “Plant response rating: Beggarticks” value ([2]; 250 g ai/ha) was 50, the “Plant response rating: Beggarticks” value ([2]; 16 g ai/ha) was 30 and the “Plant response rating: Beggarticks” value ([2]; 31 g ai/ha) was 30. The “Plant response rating: Beggarticks” value ([2]; 62 g ai/ha) was 40, the “Plant response rating: Beggarticks” value ([2]; 125 g ai/ha) was 50 and the “Plant response rating: Smartweed” value ([3]; 250 g ai/ha) was 85. The “Plant response rating: Smartweed” value ([3]; 16 g ai/ha) was 30, the “Plant response rating: Smartweed” value ([3]; 31 g ai/ha) was 40 and the “Plant response rating: Smartweed” value ([3]; 62 g ai/ha) was 50. For the same molecule, the “Plant response rating: Smartweed” value ([3]; 125 g ai/ha) was 80.
In the case of `Cc1nn(-c2ccc(F)cc2)nc1Oc1ccnc(C(F)(F)F)c1` [Compound 129, 4-[[2-(4-fluorophenyl)-5-methyl-2H-1,2,3-triazol-4-yl]oxy]-2-(trifluoromethyl)pyridine], the AMARI plant response ([4]; Rate 31) is reported as 80, the AMARI plant response ([4]; Rate 62) is reported as 90 and the AMARI plant response ([4]; Rate 125) is reported as 95. It also gave a TRZAW plant response ([5]; Rate 31) of 10, a TRZAW plant response ([5]; Rate 62) of 15 and a TRZAW plant response ([5]; Rate 125) of 15. The LOLMU plant response ([6]; Rate 31) was 10, the LOLMU plant response ([6]; Rate 62) was 10 and the LOLMU plant response ([6]; Rate 125) was 15. For the same molecule, the POLCO plant response ([7]; Rate 31) was 30, the POLCO plant response ([7]; Rate 62) was 25 and the POLCO plant response ([7]; Rate 125) was 70. The CHEAL plant response ([8]; Rate 31) was 85, the CHEAL plant response ([8]; Rate 62) was 80 and the CHEAL plant response ([8]; Rate 125) was 90.
